Here are results for 2 molecules from patent publication US8080544B2, “Prodrugs of CGRP receptor antagonists” (Merck Sharp & Dohme Corp., priority 2008, dated 2011).

Converted amounts (≈) assume the structure as drawn. A value given as a limit tells only on which side of the number the result lay.

One data set is described as follows: Aqueous solubility. The following applies: for solubility: aqueous solution. It is filed as physicochemical. From the text:
The compounds of the present invention may have improved aqueous solubility compared with telcagepant.

The nature of data set [1]: In vivo conversion to telcagepant after IV dosing, rat (plasma AUC by LC/MS). The following applies: 3.53 umol/kg, IV dose 3.53 μmol/kg, DMSO vehicle, plasma AUC of Compound 1 (telcagepant). The text has this: The compounds of the present invention may be efficiently converted to give parent telcagepant in vivo. For illustrative purposes, data for the in vivo conversion of Example 1 to telcagepant in preclinical species are shown in Table 2.

For the molecule `O=C(N[C@@H]1CC[C@@H](c2cccc(F)c2F)CN(CC(F)(F)F)C1=O)N1CCC(n2c(=O)n(COP(=O)([O-])O)c3ncccc32)CC1.[Na+]` [Example 1, {1-[1-({[(3R,6S)-6-(2,3-Difluorophenyl)-2-oxo-1-(2,2,2-trifluoroethyl)azepan-3-yl]amino}carbonyl)piperidin-4-yl]-2-oxo-1,2-dihydro-3H-imidazo[4,5-b]pyridin-3-yl}methyl hydrogen sodium phosphate], the solubility (in general, the concentration that dissolves in the medium under given conditions) in “Aqueous solubility” (aqueous buffer, pH 4.0) is > 150000 µg/mL; in the data set “Aqueous solubility” (aqueous buffer, pH 9.0), > 150000 µg/mL.

`O=C(N[C@@H]1CC[C@@H](c2cccc(F)c2F)CN(CC(F)(F)F)C1=O)N1CCC(n2c(=O)[nH]c3ncccc32)CC1` [Telcagepant, N-[(3R,6S)-6-(2,3-difluorophenyl)-2-oxo-1-(2,2,2-trifluoroethyl)azepan-3-yl]-4-(2-oxo-2,3-dihydro-1H-imidazo[4,5-b]pyridine-1-yl)piperidin-1-carboxamide]: the solubility turned out to be 77 µg/mL (≈ 136 µM) in the data set “Aqueous solubility” (aqueous buffer, pH 2.0) and 31 µg/mL (≈ 54.7 µM) in “Aqueous solubility” (pH 7.3, aqueous buffer). For the same molecule, the “aqueous solubility (in words)” value in “Aqueous solubility” (general statement, no pH given) is listed as “low aqueous solubility”. Further, the AUC (in general, concentration integrated over time) in data set [1] was 6.46 µM·h.
